Assay results published in patent US20100137266A1, “TREATMENT OF INSULIN RESISTANCE AND DISORDERS ASSOCIATED THEREWITH” (UNIVERSITETET I OSLO, priority 2006, published 2010).

How the values were obtained:
Type in all cases: cell-based, human
[1] = system: Myotubes from type II diabetic subjects; test: T0901317 response in myotubes from type II diabetic vs healthy subjects; settings: 1 μM; type II diabetic myotubes compared to myotubes from healthy donors
Description: FIG. 9. […] T0901317 (1 μM) response of (A) palmitate uptake, distribution into cellular lipids and oxidation and (B) glucose uptake (GT), oxidation (GOX) and glycogen synthesis (GS) in myotubes from healthy donors and donors with type 2 diabetes #p≦0.05 vs control myotubes.

MyoD and myogenin = test: Expression of MyoD and myogenin and differentiation of myoblasts into myotubes
Description: FIG. 1. Expression of MyoD (A) and myogenin (B) during differentiation of myoblasts. During the differentiation process, cells were harvested on day-2 until day 8. Some cell cultures were treated with ±1 μM T0901317 from day 2 until day 6. Equal amount of total RNA from each donor (n=4) were pooled, reversely transcribed and analyzed by Real-Time RT-PCR. Expression of MyoD and myogenin was normalized to GAPDH. RNA isolation and analysis of gene expression by RT-PCR. Myotubes were washed, trypsinized and pelleted before total RNA was isolated by RNeasy Mini kit (Qiagen Sciences, Oslo, Norway) or Agilent Total RNA Mini kit (Matrix, Oslo, Norway) according to the suppliers total RNA isolation protocol. […] DNA expression was determined by SYBR® Green (Applied Biosystems), and primers [36B4 (Acc#M17885), ACSL1 (Acc#NM-001995), ABCA1 (Acc#AF165281), CD36 (Acc#L06850), FAS (Acc#U26644), GAPDH (Acc#J104038/M33197, GLUT4 (Acc#M20747), LXRα (Acc#U22662), LXR (Acc#U07132), Myogenin (Acc#X17651), MyoD (Acc#BC064493), PPARα (Acc#L02932), PPARδ (Acc#BC002715), PPARγ (Acc#L40904), SCD-1 (Acc#AB032261), SREBP1c (Acc#U00968)], GLUT1, (Acc#03195), GLUT3 ([…]) were designed using Primer Express® (Applied Biosystems). Each target gene was quantified in triplicates and carried out in a 25 μl reaction volume according to the suppliers protocol. […]

LXR target genes = test: Gene expression of LXR target genes in myotubes by Real-Time RT-PCR; settings: after 22-S-HC treatment; data not shown

Structure (SMILES) | glucose uptake in response to T0901317 [1] | palmitate oxidation to CO2 in response to T0901317 [1] | uptake and incorporation of palmitate into complex lipids in response to T0901317 [1] | expression levels of MyoD and myogenin (MyoD and myogenin; 1 μM from day 2 until day 6) | differentiation of myoblasts into multinucleated myotubes by light microscopy (MyoD and myogenin; with and without LXR agonist treatment, data not shown) | FAS mRNA expression observed on a micro fluid card (LXR target genes)
O=S(=O)(c1ccccc1)N(CC(F)(F)F)c1ccc(C(O)(C(F)(F)F)C(F)(F)F)cc1 [Example T0901317] | reduced | absence | elevated | did not seem to interfere | normal differentiation | –
CC(C)CC[C@H](O)[C@@H](C)[C@H]1CC[C@H]2[C@@H]3CC=C4C[C@@H](O)CC[C@]4(C)[C@H]3CC[C@]12C [Example 22-S-HC, 22-S-hydroxycholesterol] | – | – | – | – | – | significantly reduced
